Data reported in patent US20240109903A1, “SUBSTITUTED HETEROCYCLES FOR TREATING CANCER” (Northwestern University, priority 2022, published 2024).
pIC50: −log10 of the molar value.

Key:
NCI-H522 = assay: NCI 60 five-dose screen NCI-H522; format: cell-based; details: Homo sapiens
SK-OV-3 = assay: NCI 60 five-dose screen SK-OV-3; format: cell-based; details: Homo sapiens
SK-MEL-2 = assay: NCI 60 five-dose screen SK-MEL-2; format: cell-based; details: Homo sapiens
IGROV1 = assay: NCI 60 five-dose screen IGROV1; format: cell-based; details: Homo sapiens
CAKI-1 = assay: NCI 60 five-dose screen CAKI-1; format: cell-based; details: Homo sapiens
RPMI-8226 = assay: NCI 60 five-dose screen RPMI-8226; format: cell-based; details: Homo sapiens
CCRF-CEM = assay: NCI 60 five-dose screen CCRF-CEM; format: cell-based; details: Homo sapiens
SNB-19 = assay: NCI 60 five-dose screen SNB-19; format: cell-based; details: Homo sapiens
MOLT-4 = assay: NCI 60 five-dose screen MOLT-4; format: cell-based; details: Homo sapiens
SR = assay: NCI 60 five-dose screen SR; format: cell-based, human
NCI-H23 = assay: NCI 60 five-dose screen NCI-H23; format: cell-based; details: Homo sapiens
OVCAR-4 = assay: NCI 60 five-dose screen OVCAR-4; format: cell-based; details: Homo sapiens
PC-3 = assay: NCI 60 five-dose screen PC-3; format: cell-based; details: Homo sapiens
MALME-3M = assay: NCI 60 five-dose screen MALME-3M; format: cell-based; details: Homo sapiens, Malme-3M
[1] = read-out: LC50 (the source's name) (converted)
[2] = read-out: LC50 (the source's name)

In the case of `O=c1ccc(Cn2c(C(F)(F)F)cc3c(Cl)ncnc32)c[nH]1` [NUCC-0226698], the GI50 (NCI-H522) was 2.04 µM, the pIC50 (NCI-H522) was 5.40 and the IC (TGI) (NCI-H522) was 4.9 µM. It also gave a CC50 (NCI-H522; [1]) of no less than 100 µM, a GI50 (SK-OV-3) of 44.7 µM and a pIC50 (SK-OV-3) of 4.00. For the same compound, the IC (TGI) (SK-OV-3) was 100 µM, the CC50 (SK-OV-3; [1]) was no less than 100 µM and the GI50 (SK-MEL-2) was 17 µM. The pIC50 (SK-MEL-2) was 4.48, the IC (TGI) (SK-MEL-2) was 32.4 µM and the CC50 (SK-MEL-2; [1]) was 63.1 µM. The GI50 (IGROV1; IGROV-1) was 2.29 µM, the pIC50 (IGROV1; IGROV-1) was 5.43 and the IC (TGI) (IGROV1; IGROV-1) was 6.03 µM. For the same compound, the CC50 (IGROV1; IGROV-1, read-out: LC50 (the source's name) (converted)) was 26.3 µM, the GI50 (CAKI-1) was 23.4 µM and the pIC50 (CAKI-1) was 4.37. It also gave an IC (TGI) (CAKI-1) of 100 µM, a CC50 (CAKI-1; [1]) of no less than 100 µM and a GI50 (RPMI-8226) of 22.9 µM. It also gave a pIC50 (RPMI-8226) of 4.42, an IC (TGI) (RPMI-8226) of 100 µM and a CC50 (RPMI-8226; [2]) of no less than 100 µM. For the same compound, the GI50 (CCRF-CEM) was 4.37 µM, the pIC50 (CCRF-CEM) was 5.18 and the IC (TGI) (CCRF-CEM) was 100 µM. For the same compound, the CC50 (CCRF-CEM; [2]) was no less than 100 µM, the GI50 (SNB-19) was 20.9 µM and the pIC50 (SNB-19) was 4.40. The IC (TGI) (SNB-19) was 58.9 µM, the CC50 (SNB-19; [1]) was no less than 100 µM and the GI50 (MOLT-4) was 3.24 µM. It also gave a pIC50 (MOLT-4) of 5.32, an IC (TGI) (MOLT-4) of 17 µM and a CC50 (MOLT-4; [2]) of no less than 100 µM. For the same compound, the TGI (SR) was 4.93 −log[M], the GI50 (SR; Homo sapiens) was 2.75 µM and the pIC50 (SR; Homo sapiens) was 5.41. For the same compound, the CC50 (SR; Homo sapiens, read-out: LC50 (the source's name)) was no less than 100 µM, the GI50 (NCI-H23) was 3.98 µM and the pIC50 (NCI-H23) was 5.06. For the same compound, the IC (TGI) (NCI-H23) was 18.6 µM, the CC50 (NCI-H23; [1]) was 72.4 µM and the GI50 (OVCAR-4) was 17.8 µM. The pIC50 (OVCAR-4) was 4.44, the IC (TGI) (OVCAR-4) was 44.7 µM and the CC50 (OVCAR-4; [1]) was no less than 100 µM. The GI50 (PC-3) was 17 µM, the pIC50 (PC-3) was 4.55 and the IC (TGI) (PC-3) was 56.2 µM. For the same compound, the CC50 (PC-3; [1]) was no less than 100 µM, the GI50 (MALME-3M) was 15.8 µM and the pIC50 (MALME-3M) was 4.44. For the same compound, the IC (TGI) (MALME-3M) was 34.7 µM and the CC50 (MALME-3M; [1]) was 77.6 µM.
